Ten molecules from patent US9365528B2 (Southern Research Institute, priority 2011, dated 2016) can be followed below.

The test system of series [1] is HCT116. Kind of series: Tumor cell growth inhibition, cell viability assay (Cell Titer Glo), 72 h. The series is classed as cell-based. The note with it: Homo sapiens, HCT-116. The method, then: (§1) The potency to inhibit tumor cell growth was determined by calculating IC50 values using a standard cell viability assay (Cell Titer Glo, Promega Corp,) following 72 hours of treatment. The human colon tumor cell lines, HT-29, SW480, HCT116, and Colo 741 were derived from colon adenocarcinomas, while LT97 is derived from an adenoma. Fetal human colonocytes (FHC) are representative of normal colonocytes. The lack of effect inhibiting cyclooxygenases 1 and 2 (COX-1 and -2) is also shown.
In general terms: In ATP-based viability assays light output follows the ATP content of the culture.

The subject of series [2] is LT97. Described as above. The series is classed as cell-based. The note with it: Homo sapiens; Table 3; adenoma; 72 hours of treatment. The method, then: as §1
Series [3] relates to SW480. Described as above. In kind it is cell-based. Conditions: Homo sapiens. As to the method: as §1
Series [4] has as its system HT29. The description is as above. The series is classed as cell-based. Conditions: Homo sapiens, HT-29. The method, then:
as §1

The subject of series [5] is Colo741. The series is described as above. In kind it is cell-based. The note with it: Homo sapiens, COLO-741; Table 3; colon adenocarcinoma; 72 hours of treatment. The method, then: as §1
The subject of series [6] is Fetal human colonocytes (FHC). Kind of series: Cell growth inhibition, cell viability assay (Cell Titer Glo), 72 h. In kind it is cell-based. Conditions: Table 3, normal colonocytes, 72 hours of treatment. The method, then: as §1
Series [7] relates to MDA-MB-231. Kind of series: Tumor cell growth inhibition, cell viability assay (Cell Titer Glo), 72 h. The note with it: Homo sapiens.
Method: (§2) The enzyme activity was measured using a colorimetric assay using recombinant COX enzymes. […] The growth inhibitory activity was determined following 72 hours of treatment using a standard cell viability assay (Cell Titer Glo, Promega Corp).
Series [8] deals with SKBR3. Nature of the series: Breast tumor cell growth inhibitory activity. The series is classed as cell-based. The note with it: Homo sapiens, SK-BR-3; Table 1, breast.
Series [9] relates to MCF-7. Nature of the series: Breast tumor cell growth inhibitory activity. In kind it is cell-based. Conditions: Homo sapiens, MCF7; Table 1, breast.
The target in series [10] is COX-1 (Homo sapiens, UniProt P23219). Kind of series: COX inhibition, colorimetric assay with recombinant COX enzymes.
Method: as §2
Series [11] has as its target T1, COX-2 (Homo sapiens, UniProt P35354).
T1 sequence (P35354 18-604): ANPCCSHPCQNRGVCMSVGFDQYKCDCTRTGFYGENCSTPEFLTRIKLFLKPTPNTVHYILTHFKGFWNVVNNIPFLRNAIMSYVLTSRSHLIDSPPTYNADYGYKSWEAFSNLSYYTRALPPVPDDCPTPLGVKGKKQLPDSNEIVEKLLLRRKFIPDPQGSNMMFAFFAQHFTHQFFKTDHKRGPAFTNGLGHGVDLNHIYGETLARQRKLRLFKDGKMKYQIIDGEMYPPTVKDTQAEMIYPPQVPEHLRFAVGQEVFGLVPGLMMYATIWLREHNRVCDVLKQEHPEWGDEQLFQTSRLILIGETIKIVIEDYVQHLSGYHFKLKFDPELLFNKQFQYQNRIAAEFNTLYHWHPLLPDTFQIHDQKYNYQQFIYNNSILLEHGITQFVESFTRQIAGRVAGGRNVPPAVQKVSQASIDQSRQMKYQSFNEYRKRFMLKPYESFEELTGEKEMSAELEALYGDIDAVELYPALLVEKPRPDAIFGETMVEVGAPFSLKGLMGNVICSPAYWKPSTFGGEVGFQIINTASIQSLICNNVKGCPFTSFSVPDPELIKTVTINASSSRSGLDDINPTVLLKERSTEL
The description is as above.
Method: as §2

The subject of series [12] is PC3. Kind of series: Tumor cell growth inhibitory activity. Conditions: Homo sapiens, PC-3. In kind it is cell-based.
[13] abbreviates: Table 3, colon adenocarcinoma, 72 hours of treatment, read-out: HCT116 (IC50).
Where [14] appears, read: Table 3, colon adenocarcinoma, 72 hours of treatment, read-out: SW480 (IC50).
Where [15] appears, read: Table 3, colon adenocarcinoma, 72 hours of treatment, read-out: HT29 (IC50).
Where [16] appears, read: MDA-MB-231, read-out: Breast tumor cell growth inhibitory activity (IC50, μM) MDA-MB-231.
The mark [17] stands for this setting: Table 1, colon, read-out: Colon tumor cell growth inhibitory activity (IC50, μM) HT29.
Setting [18] is: Table 1, colon, read-out: Colon tumor cell growth inhibitory activity (IC50, μM) HCT116.
The mark [19] stands for this setting: Table 1, colon, read-out: Colon tumor cell growth inhibitory activity (IC50, μM) SW480.
The mark [20] stands for this setting: MDA-MB-231, read-out: IC50 (μM) MDA-MB-231.
Setting [21] is: MDA-MB-231, read-out: Tumor cell growth inhibitory activity (IC50, μM) MDA-MB-231 (breast).
Where [22] appears, read: Table 1, compounds 10-13, read-out: Tumor cell growth inhibitory activity (IC50, μM) HT29.
Where [23] appears, read: scheme table, read-out: IC50 (μM) HT29.
Setting [24] is: Table 1, compounds 10-13, read-out: Tumor cell growth inhibitory activity (IC50, μM) PC3.
Where [25] appears, read: scheme table, read-out: IC50 (μM) PC3.

Like-named read-outs stand apart in the source and are kept apart here.

COX-1, sequence (P23219 24-599): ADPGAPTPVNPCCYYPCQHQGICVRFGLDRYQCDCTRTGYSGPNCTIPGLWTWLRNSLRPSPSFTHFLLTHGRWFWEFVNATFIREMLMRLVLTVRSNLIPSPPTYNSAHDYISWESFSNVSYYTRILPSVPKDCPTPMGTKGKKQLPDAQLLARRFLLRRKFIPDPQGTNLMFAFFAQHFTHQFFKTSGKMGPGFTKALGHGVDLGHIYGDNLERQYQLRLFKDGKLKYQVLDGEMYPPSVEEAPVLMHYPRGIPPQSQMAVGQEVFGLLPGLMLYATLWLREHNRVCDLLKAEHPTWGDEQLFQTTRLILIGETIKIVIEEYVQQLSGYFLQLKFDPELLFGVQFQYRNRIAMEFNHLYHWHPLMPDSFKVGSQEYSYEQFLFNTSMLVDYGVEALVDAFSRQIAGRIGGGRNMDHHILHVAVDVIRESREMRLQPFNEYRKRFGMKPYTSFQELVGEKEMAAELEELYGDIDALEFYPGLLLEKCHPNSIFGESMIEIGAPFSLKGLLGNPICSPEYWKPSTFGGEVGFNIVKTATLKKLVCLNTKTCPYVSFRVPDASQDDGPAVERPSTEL

The term IC50 denotes the concentration that gives 50% inhibition. As for `CSc1ccc(/C=C2/C(C)=C(CC(=O)O)c3cc(F)ccc32)cc1` [Sulindac sulfide, reference compound], the IC50 in series [1] (setting [13]) is 73.3 µM; in [2], 37.8 µM; in series [3] (setting [14]), 85.2 µM; in series [4] (setting [15]) it was 73.6 µM; in series [5], 150 µM; in series [6] it was > 200 µM.
With `CC1=C(CCNCc2ccco2)c2cc(F)ccc2/C1=C\c1ccc([S+](C)[O-])cc1` (centres unmarked) [Compound 7], the half-maximal inhibitory concentration (IC50) in series [7] (setting [16]) was 3.7 µM; in series [4] (setting [17]) it was 2.3 µM.
For `CSc1ccc(/C=C2/C(C)=C(CCNCCN3CCCCC3)c3cc(F)ccc32)cc1` [Compound 3], the 50% inhibitory concentration (IC50) in series [7] (setting [16]) was 5.3 µM; in series [1] (setting [18]), 3.8 µM; in series [3] (setting [19]), 5.4 µM; in [4] (setting [17]), 3 µM; in series [8], 4.8 µM; in [9], 6.4 µM.
In the case of `CSc1ccc(/C=C2/C(C)=C(CCN)c3cc(F)ccc32)cc1` [Compound 4], the half-maximal inhibitory concentration (IC50) in series [7] (setting [16]) came to 5.5 µM; in [1] (setting [18]), 4.9 µM; in series [3] (setting [19]), 4.1 µM; in series [4] (setting [17]) it was 4.1 µM; in series [8] it was 3.9 µM; in series [9] it was 5.9 µM.
As for `CC1=C(CCNCc2ccccc2)c2cc(F)ccc2/C1=C\c1ccc(S(C)(=O)=O)cc1` [Compound 9], the concentration for half-maximal inhibition (IC50) in [1] (setting [13]) is 6.44 µM; in [2], 8.85 µM; in series [3] (setting [14]), 5.36 µM; in series [4] (setting [17]) it was 1.8 µM; in series [4] (setting [15]), 2.02 µM; in series [5], 5.87 µM. Further, the IC50 was > 100 µM in series [10], 11.2 µM in [6] and > 100 µM in series [11].
Regarding `CSc1ccc(/C=C2/C(C)=C(CCNCc3ccccc3)c3cc(F)ccc32)cc1` [Compound 1], the IC50 in series [7] (setting [16]) turned out to be 5.8 µM; in series [1] (setting [18]), 4.9 µM; in series [1] (setting [13]) it was 4.93 µM; in [2], 6.82 µM; in series [3] (setting [19]) it was 3.3 µM; in series [3] (setting [14]), 3.28 µM. Moreover, the IC50 is 2.7 µM in series [4] (setting [17]); 2.67 µM in series [4] (setting [15]); 8.85 µM in [5]; > 200 µM in series [10]; 3.4 µM in series [8]; 7.83 µM in series [6]. The IC50 is 6.8 µM in [9] and > 200 µM in [11].
One may read the melting point as the temperature of the solid-liquid transition. `COc1cc(/C=C2/C(C)=C(CN(Cc3ccncc3)Cc3ccncc3)c3cc(F)ccc32)cc(OC)c1OC` [Compound 13, (Z)-1-(5-Fluoro-2-methyl-1-(3,4,5-trimethoxybenzylidene)-1H-inden-3-yl)-N,N-bis(pyridin-4-ylmethyl)methanamine]: the melting point amounted to 66.4 °C. Further, the IC50 in series [7] (setting [20]) was 8.21 µM. In addition, the IC50 in [7] (setting [21]) is 8.21 µM. Further, the IC50 in [4] (setting [22]) stood at 9.83 µM. The IC50 in series [4] (setting [23]) turned out to be 9.83 µM. Moreover, the IC50 in series [12] (setting [24]) was determined as 9.09 µM. For the same molecule, the concentration for half-maximal inhibition (IC50) in series [12] (setting [25]) was determined as 9.09 µM.
For `CSc1ccc(/C=C2/C(C)=C(CN)c3cc(F)ccc32)cc1` [Compound 10, (Z)-(5-Fluoro-2-methyl-1-(4-(methylthio)benzylidene)-1H-inden-3-yl)methanamine], the half-inhibitory concentration (IC50) worked out at 19.3 µM in [7] (setting [20]); 19.3 µM in [7] (setting [21]); 16 µM in [4] (setting [22]); 16 µM in series [4] (setting [23]); 33.6 µM in [12] (setting [24]); 33.6 µM in series [12] (setting [25]).
On to `COc1cc(/C=C2/C(C)=C(CN)c3cc(F)ccc32)cc(OC)c1OC` [Compound 11, (Z)-(5-Fluoro-2-methyl-1-(3,4,5-trimethoxybenzylidene)-1H-inden-3-yl)methanamine], for which the half-inhibitory concentration (IC50) in series [7] (setting [20]) turned out to be 15.3 µM; in [7] (setting [21]) it was 15.3 µM; in series [4] (setting [22]), 14.6 µM; in [4] (setting [23]) it was 14.6 µM; in series [12] (setting [24]) it was 29.7 µM; in series [12] (setting [25]), 29.7 µM.
As for `CSc1ccc(/C=C2/C(C)=C(CN(Cc3ccncc3)Cc3ccncc3)c3cc(F)ccc32)cc1` [Compound 12, (Z)-1-(5-Fluoro-2-methyl-1-(4-(methylthio)benzylidene)-1H-inden-3-yl)-N,N-bis(pyridin-4-ylmethyl)methanamine], the concentration for half-maximal inhibition (IC50) stood at 9.5 µM in [7] (setting [20]); 9.5 µM in [7] (setting [21]); 10.8 µM in series [4] (setting [22]); 10.8 µM in series [4] (setting [23]); 12.7 µM in series [12] (setting [24]); 12.7 µM in series [12] (setting [25]).
